The text below walks through data of patent US12453712B2, “Antitumoral use of cabazitaxel” (Sanofi Mature IP, priority 2009, dated 2025).

The experiment concerns castration resistant metastatic prostate cancer. Briefly: Randomized clinical study of cabazitaxel vs mitoxantrone, each with prednisone or prednisolone: efficacy. The class given is in vivo, human. On the procedure:
A clinical study was performed wherein patients received either treatment with cabazitaxel or the reference treatment based on mitoxantrone each combined with prednisone or prednisolone.
More specifically, patients over 18 years of age with metastatic castration resistant metastatic prostate cancer either measurable by RECIST criteria or non-measurable disease with rising PSA levels or appearance of new lesions, ECOG (Eastern Cooperative Oncology Group) performance stage 0-2, and adequate organ function (patients had to have neutrophils >1,500 cells/mm^3, platelets >100,000 cells/mm^3, hemoglobin >10 g/dL, creatinine <1.5×upper limit of normal (ULN), total bilirubin <1×ULN, AST <1.5×ULN, and ALT <1.5×ULN) who had had prior hormone therapy, chemotherapy, and radiotherapy, but had progressive during or after docetaxel treatment (cumulative dose ≥225 mg/m^2) were randomized to 10 mg/day of prednisone with either mitoxantrone 12 mg/m^2 or cabazitaxel 25 mg/m^2, both administered every 3 weeks.
Patients with a history of congestive heart failure, or myocardial infarction within the last 6 months, or patients with uncontrolled cardiac arrhythmias, angina pectoris, and/or hypertension were not included in the study.
720 patients were planned to be included in the clinical study: 360 in each cabazitaxel+prednisone and mitoxantrone+prednisone group. Seven hundred and fifty-five patients (755) (median age 68; 84% white) were actually enrolled, 378 in the cabazitaxel and prednisone/prednisolone group and 377 in the mitoxantrone and prednisone/prednisolone group. The maximal number of treatment cycles was 10 for cabazitaxel and 10 for mitoxantrone. The median number of treatment cycles was 6 for cabazitaxel and 4 for mitoxantrone. The median prior dose of docetaxel treatment was 576 mg/m^2 for the cabazitaxel group and 529 mg/m^2 for the mitoxantrone group. Median follow-up was 12.8 months.
The measurements of the results are performed via the same tests as at inclusion. MRI and spiral computed tomographic (CT) scans are preferably used.
The results are evaluated according to the following criteria (cf RECIST guideline): • overall survival (OS): the time from inclusion to the study to the date of death complete response (CR): disappearance of the lesions • partial response (PR): at least 30% reduction of the largest diameter of the lesion progression (PD): at least 20% increase in the sum of the largest diameter of the lesion or appearance of one or more new lesions • stable disease (SD): reduction of the tumour insufficient to be included in PR and increase of the tumour insufficient to be included in PD.
The confirmations of the measurements are made at least 4 weeks after the response criterion has been established for the first time.
The progression-free survival (PFS) is the time from inclusion in the study and the date of progression or death when the progression is either an increase of the PSA, or of the tumour, or of the pain.

With `CO[C@H]1C(=O)[C@]2(C)[C@@H](OC)C[C@H]3OC[C@@]3(OC(C)=O)[C@H]2[C@H](OC(=O)c2ccccc2)[C@]2(O)C[C@H](OC(=O)[C@H](O)[C@@H](NC(=O)OC(C)(C)C)c3ccccc3)C(C)=C1C2(C)C` [cabazitaxel, 4α-acetoxy-2α-benzoyloxy-5β,20-epoxy-1β-hydroxy-7β,10β-dimethoxy-9-oxo-11-taxen-13α-yl (2R,3S)-3-tert-butoxycarbonyl-amino-2-hydroxy-3-phenylpropionate], under “CbzP vs MP, intention-to-treat”, the “Overall survival Hazard ratio (95% CI)” value came to 0.70 and the “PFS Hazard ratio (95% CI)” value is on record as 0.74. Besides, under “cabazitaxel vs mitoxantrone, corresponding to hazard ratio 0.70”, the “reduction in risk of death” value is 30%. The “Discontinuation of study treatment for disease progression, (%)” value (intention-to-treat) is “(47.6) %”. Also, the “Discontinuation of study treatment for disease progression, no.” value (intention-to-treat, N = 377 mitoxantrone, N = 378 cabazitaxel) came to 180. Also, the “Overall survival Median” value (intention-to-treat, 25 mg/m^2 cabazitaxel or 12 mg/m^2 mitoxantrone every 3 weeks with prednisone) is recorded as 15.1 months. Besides, for the setting “intention-to-treat, earliest progression in tumor, PSA or pain”, the “PFS Median” value is 2.8 months.
